From US9650395B2, “Antibacterial compounds and methods for use” (PTC Therapeutics, Inc., priority 2011, dated 2017) come the findings set out here.

The test system of assay [1] is Acinetobacter baumannii (A. baumannii) BAA747. The assay can be described thus: Antibacterial activity, MIC, A. baumannii BAA747. It is filed as cell-based. The note with it: Acinetobacter baumannii; A. baumannii BAA747; read-out: MIC BAA747.
The test system of assay [2] is resistant A. baumannii MXX2240 (MDR clinical isolate). The assay can be described thus: Antibacterial activity, MIC, resistant A. baumannii MXX2240. The note with it: Acinetobacter baumannii, resistant A. baumannii MMX2240, MDR clinical isolate; read-out: MIC MMX2240. It is filed as cell-based, Acinetobacter baumannii.
Assay [3] deals with quinolone resistant E. coli LZ3111. The assay is described as follows: Antibacterial activity, MIC, quinolone resistant E. coli LZ3111. The assay is classed as cell-based, Escherichia coli. The note with it: Escherichia coli, read-out: MIC, LZ3111. From the text: (§1) The antibacterial activity from a microbroth dilution method may be presented as the minimum inhibitory concentration (MIC in […]). The MIC value is the lowest concentration of a drug which prevents macroscopically visible bacterial growth under test conditions.
Mutations in these regions are known to confer a high level resistance to the quinolone class of antibiotics.

The subject of assay [4] is Gram-positive Staphylococcus aureus (S. aureus) 29213. The assay is described as follows: Antibacterial activity, microbroth dilution MIC, S. aureus 29213. It is filed as cell-based. The following applies: Staphylococcus aureus; S. aureus 29213, microbroth dilution; read-out: MIC, 29213.
Assay [5] relates to resistant K. pneumoniae MXX1232 (MDR clinical isolate). The assay is described as follows: Antibacterial activity, MIC, resistant K. pneumoniae MXX1232. It is filed as cell-based, Klebsiella pneumoniae. The following applies: Klebsiella pneumoniae; resistant K. pneumoniae MMX1232, MDR clinical isolate; read-out: MIC MMX1232.
Assay [6] relates to Pseudomonas aeruginosa (P. aeruginosa) 27853. The assay is described as follows: Antibacterial activity, MIC, P. aeruginosa 27853. The note with it: Pseudomonas aeruginosa, P. aeruginosa 27853; read-out: MIC 27853. The assay is classed as cell-based.
Excerpt: as §1
Antibacterial activity of test compounds against the Gram-negative bacterium Pseudomonas aeruginosa (P. aeruginosa) 27853 is shown in Table 5.

The test system of assay [7] is super sensitive Gram-negative Escherichia coli (E. coli) BAS849. The assay can be described thus: Antibacterial activity, microbroth dilution MIC, E. coli BAS849. The assay is classed as cell-based. The following applies: Escherichia coli; E. coli BAS849, microbroth dilution; read-out: MIC, BAS849.
Assay [8] concerns Klebsiella pneumoniae (K. pneumoniae) 35657. The assay is described as follows: Antibacterial activity, MIC, K. pneumoniae 35657. It is filed as cell-based. The note with it: Klebsiella pneumoniae.
The subject of assay [9] is control Gram-negative E. coli 25922 strain. The assay can be described thus: Antibacterial activity, microbroth dilution MIC, E. coli 25922. The assay is classed as cell-based, Escherichia coli. The note with it: Escherichia coli; E. coli 25922, microbroth dilution; read-out: MIC, 25922.
Assay [10] has as its system E. coli ELZ4000 (MDR clinical isolate). The assay can be described thus: Antibacterial activity, MIC, MDR E. coli ELZ4000. It is filed as cell-based, Escherichia coli. The note with it: Escherichia coli; E. coli ELZ4000, MDR clinical isolate; read-out: MIC ELZ4000.
Assay [11] relates to E. coli ELZ4251 (MDR clinical isolate). The assay is described as follows: Antibacterial activity, MIC, MDR E. coli ELZ4251. The assay is classed as cell-based, Escherichia coli. The note with it: Escherichia coli, E. coli ELZ4251, MDR clinical isolate; read-out: MIC ELZ4251.
Assay [12] has as its system Neisseria meningitidis (N. meningitidis) 13090. The assay can be described thus: Antibacterial activity, MIC, N. meningitidis 13090. The assay is classed as cell-based. The following applies: Neisseria meningitidis; N. meningitidis 13090; read-out: MIC 13090.
Assay [13] has as its system Haemophilus influenzae (H. influenzae) 49247. The assay is described as follows: Antibacterial activity, MIC, H. influenzae 49247. The assay is classed as cell-based. The following applies: Haemophilus influenzae; H. influenzae 49247; read-out: MIC 49247. The method in brief:
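Antibacterial activity against the Gram-negative organism Haemophilus influenzae strain 49247 was measured by microbroth dilution. The minimum inhibitory concentration (MIC) was taken as the lowest drug concentration that stopped bacterial growth from being visible to the naked eye under the test conditions.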

Assay [14] has as its system Moraxella catarrhalis (M. catarrhalis) 25238. The assay can be described thus: Antibacterial activity, MIC, M. catarrhalis 25238. The assay is classed as cell-based. The following applies: Moraxella catarrhalis, M. catarrhalis 25238; read-out: MIC 25238.

Molecules are shown by their SMILES. Values after ≈ are worked out from the molar mass of the structure shown.

Take `CCc1c(-c2cnc(N(C)C)nc2)[nH]c(=O)c(C(=O)O)c1O` [Cpd 20, 6-[2-(dimethylamino)pyrimidin-5-yl]-5-ethyl-4-hydroxy-2-oxo-1,2-dihydropyridine-3-carboxylic acid]: the MIC in assay [1] is 12.5 to 150 µg/mL (≈ 41.1 to 493 µM); in [2] it was 3.5 to 12.5 µg/mL (≈ 11.5 to 41.1 µM); in [3], 3.5 to 12.5 µg/mL (≈ 11.5 to 41.1 µM); in assay [4], 12.5 to 150 µg/mL (≈ 41.1 to 493 µM); in assay [5], 12.5 to 150 µg/mL (≈ 41.1 to 493 µM); in assay [6], 12.5 to 150 µg/mL (≈ 41.1 to 493 µM). Further, the MIC in assay [7], in assay [8] and in assay [9] was 12.5 to 150 µg/mL (≈ 41.1 to 493 µM) each time.

For `CCc1c(-c2ccc(OC)cc2)[nH]c(=O)c(C(=O)O)c1O` [Cpd 25, 5-ethyl-4-hydroxy-6-(4-methoxyphenyl)-2-oxo-1,2-dihydropyridine-3-carboxylic acid], the MIC in assay [1] fell in the range of 3.5 to 12.5 µg/mL (≈ 12.1 to 43.2 µM); in [2] it was 1 to 3.5 µg/mL (≈ 3.46 to 12.1 µM); in assay [3], 12.5 to 150 µg/mL (≈ 43.2 to 519 µM); in assay [4], 12.5 to 150 µg/mL (≈ 43.2 to 519 µM); in assay [5], 12.5 to 150 µg/mL (≈ 43.2 to 519 µM); in assay [10], 12.5 to 150 µg/mL (≈ 43.2 to 519 µM). In addition, the MIC in [7] is less than 1 µg/mL; in assay [11] it was 12.5 to 150 µg/mL (≈ 43.2 to 519 µM); in [9], 3.5 to 12.5 µg/mL (≈ 12.1 to 43.2 µM).

Regarding `CCc1c(-c2ccc(N3CC[C@@H](O)C3)cc2)[nH]c(=O)c(C(=O)O)c1O` [Cpd 124, 5-ethyl-4-hydroxy-6-{4-[(3R)-3-hydroxypyrrolidin-1-yl]phenyl}-2-oxo-1,2-dihydropyridine-3-carboxylic acid], the MIC was less than 1 µg/mL in assay [1]; 12.5 to 150 µg/mL (≈ 36.3 to 436 µM) in assay [2]; 12.5 to 150 µg/mL (≈ 36.3 to 436 µM) in assay [3]; 1 to 3.5 µg/mL (≈ 2.9 to 10.2 µM) in assay [4]; 12.5 to 150 µg/mL (≈ 36.3 to 436 µM) in assay [5]; less than 1 µg/mL in assay [12]. In addition, the MIC is 12.5 to 150 µg/mL (≈ 36.3 to 436 µM) in assay [10]; less than 1 µg/mL in assay [13]; less than 1 µg/mL in assay [14]; less than 1 µg/mL in [7]; 12.5 to 150 µg/mL (≈ 36.3 to 436 µM) in [11]; less than 1 µg/mL in [9].

As for `CCc1c(-c2ccc(N3CCC(O)C3)cc2)[nH]c(=O)c(C(=O)O)c1O` (stereo not shown) [Cpd 126, 5-ethyl-4-hydroxy-6-[4-(3-hydroxypyrrolidin-1-yl)phenyl]-2-oxo-1,2-dihydropyridine-3-carboxylic acid], the MIC in [1] is less than 1 µg/mL; in assay [2] it was 12.5 to 150 µg/mL (≈ 36.3 to 436 µM); in [3], 12.5 to 150 µg/mL (≈ 36.3 to 436 µM); in assay [4], 1 to 3.5 µg/mL (≈ 2.9 to 10.2 µM); in assay [5], 12.5 to 150 µg/mL (≈ 36.3 to 436 µM); in assay [12], less than 1 µg/mL. The MIC in assay [10] is 12.5 to 150 µg/mL (≈ 36.3 to 436 µM); in [6], 3.5 to 12.5 µg/mL (≈ 10.2 to 36.3 µM); in assay [13], less than 1 µg/mL; in assay [14], less than 1 µg/mL; in [7], less than 1 µg/mL; in [11] it was 12.5 to 150 µg/mL (≈ 36.3 to 436 µM). Also, the MIC in assay [9] was less than 1 µg/mL.

For `CCc1cc(C(=O)O)c(=O)[nH]c1-c1ccc(N2CCC(NC3CC3)C2)cc1` (stereo not shown) [Cpd 173, 6-{4-[3-(cyclopropylamino)pyrrolidin-1-yl]phenyl}-5-ethyl-2-oxo-1,2-dihydropyridine-3-carboxylic acid], the MIC in assay [1] is 3.5 to 12.5 µg/mL (≈ 9.53 to 34 µM); in assay [2] it was 12.5 to 150 µg/mL (≈ 34 to 408 µM); in [3], 12.5 to 150 µg/mL (≈ 34 to 408 µM); in assay [4], 12.5 to 150 µg/mL (≈ 34 to 408 µM); in [5], 12.5 to 150 µg/mL (≈ 34 to 408 µM); in assay [6], 12.5 to 150 µg/mL (≈ 34 to 408 µM). The MIC is less than 1 µg/mL in assay [7], 1 to 3.5 µg/mL (≈ 2.72 to 9.53 µM) in assay [8] and 1 to 3.5 µg/mL (≈ 2.72 to 9.53 µM) in assay [9].

Turning to `CCc1cc(C(=O)O)c(=O)[nH]c1-c1ccc(N2CCC(c3ccncc3)C2)cc1` (stereo not shown) [Cpd 226, 5-ethyl-2-oxo-6-{4-[3-(pyridin-4-yl)pyrrolidin-1-yl]phenyl}-1,2-dihydropyridine-3-carboxylic acid], the MIC in assay [1] lay in the range of 1 to 3.5 µg/mL (≈ 2.57 to 8.99 µM); in [2], 12.5 to 150 µg/mL (≈ 32.1 to 385 µM); in assay [3], 12.5 to 150 µg/mL (≈ 32.1 to 385 µM); in [4], 3.5 to 12.5 µg/mL (≈ 8.99 to 32.1 µM); in [5], 12.5 to 150 µg/mL (≈ 32.1 to 385 µM); in [6], 12.5 to 150 µg/mL (≈ 32.1 to 385 µM). The MIC in assay [7] was less than 1 µg/mL; in assay [8], 3.5 to 12.5 µg/mL (≈ 8.99 to 32.1 µM); in assay [9], 1 to 3.5 µg/mL (≈ 2.57 to 8.99 µM).
